Reference: article PMC9744290, “Two apicoplast dwelling glycolytic enzymes provide key substrates for metabolic pathways in the apicoplast and are critical for Toxoplasma growth” (PLOS Pathogens, 2022)

Biological target: T1, PGK2 (Toxoplasma gondii, UniProt A0A7J6KGR7)
T1 construct: gene TGRH88_001020; His-SUMO fusion, E. coli BL21(DE3), His-tag resin
T1 sequence (A0A7J6KGR7 1-593): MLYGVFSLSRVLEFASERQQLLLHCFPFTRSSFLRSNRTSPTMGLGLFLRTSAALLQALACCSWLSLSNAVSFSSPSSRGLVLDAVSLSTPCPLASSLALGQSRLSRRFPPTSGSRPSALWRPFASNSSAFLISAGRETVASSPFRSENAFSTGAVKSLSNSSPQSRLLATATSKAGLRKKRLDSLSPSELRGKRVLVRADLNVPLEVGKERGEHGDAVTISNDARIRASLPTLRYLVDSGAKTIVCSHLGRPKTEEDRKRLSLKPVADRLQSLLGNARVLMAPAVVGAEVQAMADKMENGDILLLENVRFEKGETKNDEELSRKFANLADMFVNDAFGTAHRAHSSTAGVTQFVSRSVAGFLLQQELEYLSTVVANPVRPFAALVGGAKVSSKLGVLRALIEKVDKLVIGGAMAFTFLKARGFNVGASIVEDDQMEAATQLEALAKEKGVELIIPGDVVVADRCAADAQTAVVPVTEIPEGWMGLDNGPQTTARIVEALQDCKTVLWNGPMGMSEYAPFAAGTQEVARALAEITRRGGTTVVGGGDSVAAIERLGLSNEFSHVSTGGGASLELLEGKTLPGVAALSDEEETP
Test: NADH-coupled colorimetric PGK assay kit, OD340
Type: biochemical
Details: reverse direction of PGK; 0-960 uM substrate, 5 ug/ml enzyme, 2 min

## O=C(O)[C@H](O)COP(=O)(O)O [3-phosphoglycerate]
  NADH-coupled colorimetric PGK assay kit, OD340: assayed with recombinant enzymes under different concentrations of 3-phosphoglycerate (3-PG)
